Experimental data as given in publication PMC9598407, “Identification of Staphylococcus aureus Penicillin Binding Protein 4 (PBP4) Inhibitors” (Antibiotics, 2022).

What was measured:
[1] = test system: S. aureus USA300; assay: µSiM-CA membrane transmigration; assay type: cell-based, Staphylococcus aureus
Description: Thus, we tested 9314848 for its ability to eliminate S. aureus migration through µSiM-CA membrane pores. […] Conversely, the USA300∆pbp4 strain was unable to efficiently transverse the membrane, verifying that PBP4 is required for S. aureus membrane transmigration, as previously reported. To evaluate whether 9314848 is capable of eliminating PBP4-associated S. aureus µSiM-CA membrane migration, 1 × 10^7 CFU wild type cells were incubated with 0, 3.125, 6.25, 12.5, or 25 µM of the compound for 2 h then applied to the top chamber of the device. Following incubation, cells in the top and bottom chambers were enumerated.
The effect of PBP4 inhibitors on S. aureus migration through 500 nm nanoporous membranes modeling the orifices of osteocyte lacuno-canalicular networks was investigated using a µSiM-CA device, as previously described. Briefly, µSIM-CA systems were fabricated by SiMPore Inc. (West Henrietta, NY, USA) to include a top and a bottom chamber that were separated by 400 nm thick silicon nitride membrane containing an array of 500 nm pores, allowing for quantification of bacteria that migrate from the apical (top) well to the basal (bottom) well. To measure bacterial migration through the device membrane, S. aureus strains USA300 or USA300∆pbp4 were grown overnight at 37 °C with aeration, diluted (1:100) in fresh MH media, and then grown to mid-exponential phase (OD600nm = 0.2) in the presence or absence of putative PBP4 inhibitor for approximately 2 h at 37 °C shaking with aeration. A total of 100 µL of cell mixture (~1 × 10^7 CFU) was transferred into the top reservoir of the device and incubated for 6 h at 37 °C. A total of 10 µL of media from the apical and basal reservoirs was collected, serial diluted in 0.8% NaCl, and plated on MH agar plates for bacterial enumeration.

[2] = test system: S. aureus strain USA300; assay: microbe, parasite or virus in culture; assay type: cell-based; settings: Staphylococcus aureus, USA300, read-out: Ceftobiprole resistance (MIC) in the presence of compound
Description: Fractional inhibitory testing was performed in checkerboard format to determine whether putative PBP4 inhibitors potentiated the antimicrobial effects of β-lactams toward S. aureus strains USA300 and CRB, as previously described. To do so, in triplicate 10^5 CFU of each strain (10 µL) was added to individual wells of a microtiter plate containing 90 µL MH media. […] Plates were incubated at 37 °C for 16–20 h and the lowest concentration of each test agent that inhibited bacterial growth alone or in combination was determined by the naked eye. The fractional inhibitory concentration (FIC) index was calculated using the formula: FIC of A (MIC of drug A in combination/MIC of drug A alone) + FIC B ([…]/MIC of drug B alone). A synergistic interaction was defined as a FICI value of less than 0.5, an additive interaction was defined as a FICI value between 0.5 and 1.0, an indifferent interaction was defined as a FICI value between 1.0 and 4.0, and an antagonistic interaction was defined as a FICI value of more than 4.0 [46].

[3] = biological target: recombinant Bacillus subtilis PBP4 (Bacillus subtilis, UniProt P40750); assay: BOCILLIN FL fluorescence polarization displacement assay, PBP4; assay type: binding
Description: To more directly evaluate whether 9314848 is likely to affect PBP4 function, the compound’s ability to bind recombinant PBP4 was measured using BOCILLIN FL fluorescence polarization displacement assays. The premise for the assay is that the fluorescence polarization of the fluorescently labeled β-lactam, penicillin V (BOCILLIN FL), will increase upon binding to its cognate target (i.e., PBP4). Further, compounds that bind PBP4 and inhibit its function would impede BOCILLIN FL binding thereby allowing us to assess the protein binding affinity of 9314848 using a simple fluorescence reduction assay.
To determine whether the assay is amenable to measuring the binding properties of a compound that is known to bind PBP4 vs. a compound that is not expected to bind the protein we performed fluorescence polarization assays in which PBP4 was preincubated with either the β-lactam ampicillin, or the aminoglycoside kanamycin.
A dose response study was conducted (Figure 4B) in which PBP4 was preincubated with 0, 3.125, 6.25, 12.5, 25, or 50 µM of ampicillin, kanamycin, or 9314848.
First, fluorescence polarization assays were performed as previously described, but with minor modifications. Briefly, the indicated amount of the putative PBP4 inhibitor or control antibiotic was incubated with 1 µM recombinant B. subtilis PBP4 or S. aureus PBP2a in potassium phosphate buffer (40 mM K2HPO4 and 10 mM KH2PO4) for 1 h in black 96-well microtiter plates (Corning Life Sciences, Corning, NY, USA). Following incubation, 1 µM (final concentration) BOCILLIN FL penicillin was added, and the mixture was incubated for 30 min. BOCILLIN FL fluorescence polarization was measured at (495 nm excitation and 545 nm emission) in a SpectraMax M5 multimode plate reader (Molecular Devices, San Jose, CA, USA). […] The resulting data were plotted as percentage BOCILLIN FL binding inhibition = (T/U) × 100; T = FL polarization of ((PBP4+ BOCILLIN FL) − (PBP4+ BOCILLIN FL + inhibitor compound)), U = FL polarization of ((PBP4 + BOCILLIN FL) − (BOCILLIN FL)). Second, gel electrophoresis and fluorescence detection was used to measure BOCILLIN FL labeling of PBP4 treated with the known PBP4 inhibitor cefoxitin (positive control), kanamycin (negative control) or 9314848 (test compound), as previously described but with minor modifications. Briefly, 1 µM of recombinant PBP4 was mixed with 0, 50, 500, 2000, or 5000 µM 9314848 or control antibiotic in 50 mM phosphate buffer (pH 7.4) and incubated at 37 °C for 30 min. Next 40 μM of BOCILLIN FL was added to the reaction mixture and incubated for an additional 30 min at 37 °C. Reactions were stopped by adding 5× SDS-PAGE gel loading dye, heated at 100 °C for 3 min and separated by electrophoresis in 12% SDS-PAGE (2 h, 120 Volts). BOCILLIN FL labeled PBP4 was imaged at λ = 365 nm using a BioRad Gel Doc EZ Imaging system and the gel was then subsequently stained with Bio-safe Coomassie Brilliant Blue stain (BioRad, Hercules, CA, USA) to measure the amount of protein present in each reaction condition and analyzed using NIH-ImageJ software. The percent BOCILLIN FL binding was calculated by first normalizing the protein present in each reaction condition to that of untreated control and subsequently applying each reaction’s protein normalization factor to each reaction’s fluorescent signal. The percentage BOCILLIN FL binding inhibition was then calculated as the normalized band intensity of antibiotic/compound treated sample as compared to the control sample (PBP4 + BOCILLIN FL in the absence of compound).

Chain of recombinant Bacillus subtilis PBP4 (P40750 22-624): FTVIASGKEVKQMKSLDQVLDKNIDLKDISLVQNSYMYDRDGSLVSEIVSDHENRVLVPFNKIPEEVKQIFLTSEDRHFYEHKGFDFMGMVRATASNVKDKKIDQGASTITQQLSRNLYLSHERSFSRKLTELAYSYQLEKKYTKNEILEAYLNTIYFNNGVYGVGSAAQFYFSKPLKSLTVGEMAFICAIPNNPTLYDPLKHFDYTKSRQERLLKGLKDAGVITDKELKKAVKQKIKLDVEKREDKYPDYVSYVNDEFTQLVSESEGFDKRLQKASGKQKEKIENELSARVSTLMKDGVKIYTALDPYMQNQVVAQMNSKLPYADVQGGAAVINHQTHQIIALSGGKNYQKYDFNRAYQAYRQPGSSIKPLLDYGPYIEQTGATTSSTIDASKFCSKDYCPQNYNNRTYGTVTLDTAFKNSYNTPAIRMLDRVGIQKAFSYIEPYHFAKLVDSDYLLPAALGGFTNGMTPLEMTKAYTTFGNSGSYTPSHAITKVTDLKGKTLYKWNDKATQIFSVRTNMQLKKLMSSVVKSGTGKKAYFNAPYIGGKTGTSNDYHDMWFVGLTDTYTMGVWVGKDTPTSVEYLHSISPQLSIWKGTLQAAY

CC1CCN(C(=O)c2cccc(NC(=O)Nc3ccc(Cl)cc3)c2)CC1 [Compound 9314848]
Viability of cells within the top/treatment chamber ([1]; 0-25 µM compound): did not affect the viability
Effect on S. aureus membrane transmigration ([1]; concentrations greater than 6.25 µM (2.5 µg/mL)): completely inhibited
Effect on S. aureus membrane transmigration ([1]; ≤3.125 µM): no effect
MIC [2]: 0.25 µg/mL
Binding to PBP4 at low concentration ([3]; 3.125 µM and 6.25 µM): Minimal binding
Reduction of BOCILLIN FL binding to PBP4 ([3]; 50 µM compound, fluorescence polarization): ~ 66%
Effect of preincubation on BOCILLIN FL binding to PBP4 (fluorescence polarization) ([3]; 50 µM, 1 µM PBP4): limited fluorescence polarization
IC50 ([3]; fluorescence polarization dose response 0-50 µM, read-out: IC50, PBP4 BOCILLIN FL binding inhibition): 13.4 µM
